From patent US20230041563A1, “N-(1,3,4-OXADIAZOL-2-YL)ARYLCARBOXAMIDES OR SALTS THEREOF, PREPARATION METHODS, HERBICIDAL COMPOSITIONS AND USES THEREOF” (priority 2018, published 2023)

Tests used:
Test in all cases: Weeding effect in post-emergence stage (greenhouse pot spray)
Assay type in all cases: in vivo
Echinochloa crusgalli = tested on: Echinochloa crusgalli
Description: (§1) The activity level criteria for plant damage (i.e., growth control rate) are as follows:
(§2) The above growth control rates are fresh weight control rates.
(§3) Experiment on weeding effect in post-emergence stage: monocotyledonous and dicotyledonous weed seeds (Descurainia sophia, Capsella bursa-pastoris, Abutilon theophrasti, Galium aparine, Stellaria media, Lithospermum arvense, rorippa indica, Alopecurus aequalis, Beckmannia syzigachne, Sclerochloa dura, Phleum paniculatum, Bromus japonicus, Aegilops tauschii, Phalaris arundinacea, Amaranthus retroflexus, Chenopodiaceae, Commelina communis, Sonchus arvensis, convolvulus arvensis, Cirsium setosum, Solanum nigrum, Acalypha australis, Digitaria sanguinalis, Echinochloa crusgalli, Setaria viridis, Setaria glauca, Leptochloa chinensis, Monochoria vaginalis, Sagittaria trifolia, Scirpus juncoides, Cyperus rotundus, Cyperus iria, Cyperus difformis, Fimbristylis, Portulaca oleracea, Xanthium sibiricum, Pharbitis nil) and major crop seeds (wheat, corn, rice, soybean, cotton, oilseed rape, millet, sorghum, potato, sesame, ricinus) were placed in plastic pots filled with soil, then covered with 0.5-2 cm of soil, allowed to grow in a good greenhouse environment. After 2 weeks of sowing, the test plants were treated in the 2 to 3 leaf stage. The tested compounds of the present invention were respectively dissolved in acetone, then added with Tween 80 and 1.5 liter/ha of emulsifiable concentrate of methyl oleate as synergist, diluted with a certain amount of water to obtain a solution with a certain concentration, and sprayed with a spray tower onto the plants. After the application, the plants were cultured for 3 weeks in the greenhouse, and then the experimental results of the weeding were counted. […]

Digitaria sanguinalis = tested on: Digitaria sanguinalis
Description: as §1, §2, §3

Setaria viridis = tested on: Setaria viridis
Description: as §1, §2, §3

Row | SMILES | Echinochloa crusgali (activity level) (Echinochloa crusgalli; Table 3, dose 500 g a.i./ha) | Digitaria sanguinahs (activity level) (Digitaria sanguinalis; Table 3, dose 500 g a.i./ha) | Setaria viridis (activity level) (Setaria viridis; Table 3, dose 500 g a.i./ha) | also measured
1 | Cc1nnc(NC(=O)c2ccc(C(F)(F)F)c([S@@+]([O-])CCC3CC3)c2F)o1 [1-395 (R-configuration)] | 5 (Level 5: growth control rate is above 85%) | 5 (Level 5: growth control rate is above 85%) | 5 (Level 5: growth control rate is above 85%) | –
2 | C=CCC[S@+]([O-])c1c(C(F)(F)F)ccc(C(=O)Nc2nnc(C)o2)c1F [1-397 (R-configuration)] | – | – | – | Echinochloa crusgali (activity level) (Echinochloa crusgalli; Table 3, dose 125 g a.i./ha): 5 (Level 5: growth control rate is above 85%); Digitaria sanguinahs (activity level) (Digitaria sanguinalis; Table 3, dose 125 g a.i./ha): 5 (Level 5: growth control rate is above 85%); Setaria viridis (activity level) (Setaria viridis; Table 3, dose 125 g a.i./ha): 5 (Level 5: growth control rate is above 85%)
3 | C/C=C/C[S@@+]([O-])c1c(C(F)(F)F)ccc(C(=O)Nc2nnc(C)o2)c1F [1-398 (R-configuration)] | – | – | – | Echinochloa crusgali (activity level) (Echinochloa crusgalli; Table 3, dose 250 g a.i./ha): 5 (Level 5: growth control rate is above 85%); Digitaria sanguinahs (activity level) (Digitaria sanguinalis; Table 3, dose 250 g a.i./ha): 5 (Level 5: growth control rate is above 85%); Setaria viridis (activity level) (Setaria viridis; Table 3, dose 250 g a.i./ha): 5 (Level 5: growth control rate is above 85%)
4 | C#CCC[S@@+]([O-])c1c(C(F)(F)F)ccc(C(=O)Nc2nnc(C)o2)c1F [1-401 (R-configuration)] | 5 (Level 5: growth control rate is above 85%) | 5 (Level 5: growth control rate is above 85%) | 5 (Level 5: growth control rate is above 85%) | –
5 | CC#CC[S@+]([O-])c1c(C(F)(F)F)ccc(C(=O)Nc2nnc(C)o2)c1F [1-402 (R-configuration)] | 5 (Level 5: growth control rate is above 85%) | 5 (Level 5: growth control rate is above 85%) | 5 (Level 5: growth control rate is above 85%) | –
6 | Cc1nnc(NC(=O)c2ccc(C(F)(F)F)c([S@@+]([O-])CC(C)F)c2F)o1 (stereo partly drawn) [1-404 (R-configuration)] | – | – | – | Echinochloa crusgali (activity level) (Echinochloa crusgalli; Table 3, dose 60 g a.i./ha): 5 (Level 5: growth control rate is above 85%); Digitaria sanguinahs (activity level) (Digitaria sanguinalis; Table 3, dose 60 g a.i./ha): 5 (Level 5: growth control rate is above 85%); Setaria viridis (activity level) (Setaria viridis; Table 3, dose 60 g a.i./ha): 5 (Level 5: growth control rate is above 85%)
7 | Cc1nnc(NC(=O)c2ccc(C(F)(F)F)c([S@@+]([O-])CCC(F)F)c2F)o1 [1-405 (R-configuration)] | – | – | – | Echinochloa crusgali (activity level) (Echinochloa crusgalli; Table 3, dose 125 g a.i./ha): 5 (Level 5: growth control rate is above 85%); Digitaria sanguinahs (activity level) (Digitaria sanguinalis; Table 3, dose 125 g a.i./ha): 5 (Level 5: growth control rate is above 85%); Setaria viridis (activity level) (Setaria viridis; Table 3, dose 125 g a.i./ha): 5 (Level 5: growth control rate is above 85%)
8 | Cc1nnc(NC(=O)c2ccc(C(F)(F)F)c([S@@+]([O-])CCCC(F)(F)F)c2F)o1 [1-411 (R-configuration)] | – | – | – | Echinochloa crusgali (activity level) (Echinochloa crusgalli; Table 3, dose 250 g a.i./ha): 5 (Level 5: growth control rate is above 85%); Digitaria sanguinahs (activity level) (Digitaria sanguinalis; Table 3, dose 250 g a.i./ha): 5 (Level 5: growth control rate is above 85%); Setaria viridis (activity level) (Setaria viridis; Table 3, dose 250 g a.i./ha): 5 (Level 5: growth control rate is above 85%)
9 | Cc1nnc(NC(=O)c2ccc(C(F)(F)F)c([S@+]([O-])CCC(F)(F)C(F)(F)F)c2F)o1 [1-412 (R-configuration)] | 5 (Level 5: growth control rate is above 85%) | 5 (Level 5: growth control rate is above 85%) | 5 (Level 5: growth control rate is above 85%) | –
10 | Cc1nnc(NC(=O)c2ccc(C(F)(F)F)c([S@@+]([O-])CCC(F)(C(F)(F)F)C(F)(F)F)c2F)o1 [1-413 (R-configuration)] | 5 (Level 5: growth control rate is above 85%) | 5 (Level 5: growth control rate is above 85%) | 5 (Level 5: growth control rate is above 85%) | –
11 | Cc1nnc(NC(=O)c2ccc(C(F)(F)F)c([S@@+]([O-])CCC#N)c2F)o1 [1-427 (R-configuration)] | 5 (Level 5: growth control rate is above 85%) | 5 (Level 5: growth control rate is above 85%) | 5 (Level 5: growth control rate is above 85%) | –
12 | Cc1nnc(NC(=O)c2ccc(C(F)(F)F)c([S@@+]([O-])CCCC#N)c2F)o1 [1-428 (R-configuration)] | 5 (Level 5: growth control rate is above 85%) | 5 (Level 5: growth control rate is above 85%) | 5 (Level 5: growth control rate is above 85%) | –
13 | Cc1nnc(NC(=O)c2ccc(C(F)(F)F)c([S@@+]([O-])CCO)c2F)o1 [1-429 (R-configuration)] | 5 (Level 5: growth control rate is above 85%) | 5 (Level 5: growth control rate is above 85%) | 5 (Level 5: growth control rate is above 85%) | –
14 | Cc1nnc(NC(=O)c2ccc(C(F)(F)F)c([S@+]([O-])CCCO)c2F)o1 [1-430 (R-configuration)] | 5 (Level 5: growth control rate is above 85%) | 5 (Level 5: growth control rate is above 85%) | 5 (Level 5: growth control rate is above 85%) | –
15 | Cc1nnc(NC(=O)c2ccc(C(F)(F)F)c([S@@+]([O-])CC(C)O)c2F)o1 (stereo partly drawn) [1-431 (R-configuration)] | 5 (Level 5: growth control rate is above 85%) | 5 (Level 5: growth control rate is above 85%) | 5 (Level 5: growth control rate is above 85%) | –
16 | Cc1nnc(NC(=O)c2ccc(C(F)(F)F)c([S@@+]([O-])CCCN)c2F)o1 [1-432 (R-configuration)] | 5 (Level 5: growth control rate is above 85%) | 5 (Level 5: growth control rate is above 85%) | 5 (Level 5: growth control rate is above 85%) | –
17 | CCOC[S+]([O-])c1c(C(F)(F)F)ccc(C(=O)Nc2nnc(C)o2)c1F (stereo not drawn) [1-444 (R-configuration)] | 5 (Level 5: growth control rate is above 85%) | 5 (Level 5: growth control rate is above 85%) | 5 (Level 5: growth control rate is above 85%) | –
18 | CCOCC[S@+]([O-])c1c(C(F)(F)F)ccc(C(=O)Nc2nnc(C)o2)c1F [1-446 (R-configuration)] | 5 (Level 5: growth control rate is above 85%) | 5 (Level 5: growth control rate is above 85%) | 5 (Level 5: growth control rate is above 85%) | –
19 | COC(C)C[S@+]([O-])c1c(C(F)(F)F)ccc(C(=O)Nc2nnc(C)o2)c1F (stereo partly drawn) [1-447 (R-configuration)] | 5 (Level 5: growth control rate is above 85%) | 5 (Level 5: growth control rate is above 85%) | 5 (Level 5: growth control rate is above 85%) | –
20 | COCCC[S@@+]([O-])c1c(C(F)(F)F)ccc(C(=O)Nc2nnc(C)o2)c1F [1-448 (R-configuration)] | 5 (Level 5: growth control rate is above 85%) | 5 (Level 5: growth control rate is above 85%) | 5 (Level 5: growth control rate is above 85%) | –
21 | Cc1nnc(NC(=O)c2ccc(C(F)(F)F)c([S@@+]([O-])CCOC(F)F)c2F)o1 [1-523 (R-configuration)] | 5 (Level 5: growth control rate is above 85%) | 5 (Level 5: growth control rate is above 85%) | 5 (Level 5: growth control rate is above 85%) | –
22 | CC(C)=NOCC[S@@+]([O-])c1c(C(F)(F)F)ccc(C(=O)Nc2nnc(C)o2)c1F [1-525 (R-configuration)] | 5 (Level 5: growth control rate is above 85%) | 5 (Level 5: growth control rate is above 85%) | 5 (Level 5: growth control rate is above 85%) | –
23 | CC(=O)C[S@@+]([O-])c1c(C(F)(F)F)ccc(C(=O)Nc2nnc(C)o2)c1F [1-552 (R-configuration)] | – | – | – | Echinochloa crusgali (activity level) (Echinochloa crusgalli; Table 3, dose 125 g a.i./ha): 5 (Level 5: growth control rate is above 85%); Digitaria sanguinahs (activity level) (Digitaria sanguinalis; Table 3, dose 125 g a.i./ha): 5 (Level 5: growth control rate is above 85%); Setaria viridis (activity level) (Setaria viridis; Table 3, dose 125 g a.i./ha): 5 (Level 5: growth control rate is above 85%)
24 | CCC[S@+]([O-])c1c(C(F)(F)F)ccc(C(=O)Nc2nnc(CC)o2)c1F [2-8 (R-configuration)] | – | – | – | Echinochloa crusgali (activity level) (Echinochloa crusgalli; Table 3, dose 250 g a.i./ha): 5 (Level 5: growth control rate is above 85%); Digitaria sanguinahs (activity level) (Digitaria sanguinalis; Table 3, dose 250 g a.i./ha): 5 (Level 5: growth control rate is above 85%); Setaria viridis (activity level) (Setaria viridis; Table 3, dose 250 g a.i./ha): 5 (Level 5: growth control rate is above 85%)
25 | CC[S@+]([O-])c1c(C(F)(F)F)ccc(C(=O)Nc2nnco2)c1F [3-5 (R-configuration)] | – | – | – | Echinochloa crusgali (activity level) (Echinochloa crusgalli; Table 3, dose 120 g a.i./ha): 5 (Level 5: growth control rate is above 85%); Digitaria sanguinahs (activity level) (Digitaria sanguinalis; Table 3, dose 120 g a.i./ha): 5 (Level 5: growth control rate is above 85%); Setaria viridis (activity level) (Setaria viridis; Table 3, dose 120 g a.i./ha): 5 (Level 5: growth control rate is above 85%)
26 | CCC[S@@+]([O-])c1c(C(F)(F)F)ccc(C(=O)Nc2nnco2)c1F [3-8 (R-configuration)] | – | – | – | Echinochloa crusgali (activity level) (Echinochloa crusgalli; Table 3, dose 60 g a.i./ha): 5 (Level 5: growth control rate is above 85%); Digitaria sanguinahs (activity level) (Digitaria sanguinalis; Table 3, dose 60 g a.i./ha): 5 (Level 5: growth control rate is above 85%); Setaria viridis (activity level) (Setaria viridis; Table 3, dose 60 g a.i./ha): 5 (Level 5: growth control rate is above 85%)
